ChEMBL document CHEMBL5150016, “Inhibiting Sodium Taurocholate Cotransporting Polypeptide in HBV-Related Diseases: From Biological Function to Therapeutic Potential” (J Med Chem, 2022)
Converted amounts (≈) assume the structure as drawn.

Tests used:
[1] = molecular target: T1, Hepatic sodium/bile acid cotransporter (Homo sapiens, UniProt Q14973); experiment: Inhibition of HBV subgenotype D3 [3H]-myr-preS1 (2 to 48 residues) peptide binding to human NTCP in HEK293 cells preincubated for 5 mins followed by substrate addition and measured after 10 mins using by microplate scintillation counter analysis; format: cell-based
T1 sequence (Q14973 whole entry): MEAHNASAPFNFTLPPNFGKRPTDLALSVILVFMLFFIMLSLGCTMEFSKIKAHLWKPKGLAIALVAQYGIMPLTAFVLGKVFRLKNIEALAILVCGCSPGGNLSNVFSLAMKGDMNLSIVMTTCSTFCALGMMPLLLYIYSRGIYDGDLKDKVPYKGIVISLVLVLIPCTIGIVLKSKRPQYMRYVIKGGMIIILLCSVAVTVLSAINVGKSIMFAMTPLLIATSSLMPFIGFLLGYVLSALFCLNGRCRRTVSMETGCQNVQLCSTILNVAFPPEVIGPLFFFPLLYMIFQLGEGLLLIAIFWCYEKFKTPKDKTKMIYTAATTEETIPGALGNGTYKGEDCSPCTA

Hepatitis B virus [2] = experiment: Antiviral activity against HBV infected HepG2 cells assessed as reduction in HBeAg level; format: functional, organism-based; conditions: HepG2 2.2.15
Hepatitis B virus [3] = experiment: Antiviral activity against HBV infected HepG2 cells assessed as reduction in HBsAg level; format: functional, organism-based; conditions: HepG2 2.2.15
Hepatitis B virus [4] = experiment: Antiviral activity against HBV infected in human HepG2-hNTCP cells assessed as reduction in intracellular HBV RNA incubated for 16 hrs followed by compound washout and measured after 6 days post infection by ELISA; format: functional, organism-based
Hepatitis delta virus [5] = experiment: Antiviral activity against hepatitis D virus infected in human Huh-7 cells overexpressing NTCP assessed as reduction in intracellular HDV RNA for 20 hrs followed by viral infection further compound washout and measured after 6 days post infection by RT-qPCR analysis; format: functional, organism-based
Hepatitis B virus [6] = experiment: Antiviral activity against HBV infected HepG2 2.2.15 cells assessed as reduction in HBsAg level at 50 microg/ml for 48 hrs by ELISA; format: functional, organism-based; parameters: Activity: scale not given: the % may be the effect or the level left; conditions: for Activity: dose 50 µg/ml, time 48 hrs
Hepatitis B virus [7] = experiment: Antiviral activity against HBV infected HepG2 2.2.15 cells assessed as reduction in HBeAg level at 50 microg/ml for 48 hrs by ELISA; format: functional; parameters: scale not given: the % may be the effect or the level left; conditions: dose 50 µg/ml
Hepatitis B virus [8] = experiment: Antiviral activity against HBV infected human HepG2-hNTCP cells assessed as reduction of HBV DNA level preincubated for 3 hrs followed by viral infection for 16 hrs further compound washout and measured 6 days post infection by qPCR analysis; format: functional, organism-based
Hepatitis B virus [9] = experiment: Antiviral activity against HBV infected human DMSO differentiated HuS-E/2 cells assessed as reduction of HBV core protein level incubated for 20 hrs by Western blot analysis; format: functional, organism-based; conditions: HuS-E/2, 20 h
Hepatitis B virus [10] = experiment: Antiviral activity against HBV infected human DMSO differentiated HuS-E/2 cells overexpressing NTCP assessed as assessed as inhibition of viral entry by measuring HBV mRNA level at 20 uM by qPCR analysis relative to control; format: functional
Hepatitis B virus [11] = experiment: Antiviral activity against HBV infected human DMSO differentiated HuS-E/2 cells overexpressing NTCP assessed as assessed as inhibition of viral entry by measuring HBV mRNA level by qPCR analysis; format: functional, organism-based
[12] = molecular target: T1, Hepatic sodium/bile acid cotransporter; experiment: Inhibition of human NTCP mediated TCA uptake in HepG2-hNTCP cells incubated for 15 mins using [3H] taurocholic acid as substrate by liquid scintillation counter analysis; format: cell-based
[13] = molecular target: T1, Hepatic sodium/bile acid cotransporter; experiment: Inhibition of TAMRA-labeled preS1-peptide binding to human NTCP in HepG2-hNTCP cells incubated for 30 mins by […]; format: cell-based
Hepatitis delta virus [14] = experiment: Antiviral activity against hepatitis D virus infected in human HepG2-hNTCP cells assessed as reduction in viral replication preincubated for 5 mins followed by viral infection measured after 6 hrs post infection by RT-qPCR analysis; format: functional, organism-based
[15] = molecular target: T1, Hepatic sodium/bile acid cotransporter; experiment: Inhibition of preS1-peptide binding to human HA-tagged NTCP in U2OS expresseing NTCP in incubated for 24 hrs using Myrcludex B as substrate by competitive binding assay; format: cell-based
Hepatitis B virus [16] = experiment: Antiviral activity against HBV infected in human HepG2-hNTCP cells assessed as reduction in HBsAg level preincubated for 2 hrs followed by viral infection for 16 hrs further compound washout and measured after 12 days post infection by ELISA; format: functional, organism-based
HepG2 = experiment: Antiproliferative activity against human HEpG2 cells; format: functional, cell-based
Hepatitis B virus [17] = experiment: Antiviral activity against HBV infected in human DMSO differentiated imHC cells assessed as reduction in intracellular HBV DNA at 30 uM preincubated for 2 hrs followed by viral infection for 18 hrs followed by compound washout and further treated with fresh compound for 24 hrs and measured on day 7 post infection by real-time qPCR analysis; format: functional; parameters: scale not given: the % may be the effect or the level left; conditions: time 44 hrs
[18] = molecular target: T1, Hepatic sodium/bile acid cotransporter; experiment: Binding affinity to human NTCP assessed as dissociation constant by isothermal titration calorimetry
Hepatitis B virus [19] = experiment: Antiviral activity against HBV infected in human DMSO differentiated imHC cells assessed as reduction in viral load at 30 uM preincubated for 2 hrs followed by viral infection for 18 hrs followed by compound washout and further treated with fresh compound for 24 hrs and measured on day 7 post infection by real-time qPCR analysis; format: functional; parameters: scale not given: the % may be the effect or the level left; conditions: time 44 hrs
[20] = molecular target: T1, Hepatic sodium/bile acid cotransporter; experiment: Inhibition of human NTCP mediated TCA uptake in U2OS expresseing HA-tagged NTCP cells preincubated for 10 mins followed by substrate addition and measured after 2 mins using [3H]-taurocholate as substrate by liquid scintillation counter analysis; format: cell-based
Hepatitis B virus [21] = experiment: Antiviral activity against HBV infected HepG2 2.2.15 cells assessed as reduction in HBsAg level and measured after 9 days by ELISA; format: functional, organism-based; conditions: HepG2 2.2.15, 216 h
Hepatitis B virus [22] = experiment: Antiviral activity against HBV infected HepG2 2.2.15 cells assessed as reduction in HBeAg level and measured after 9 days by ELISA; format: functional, organism-based; conditions: HepG2 2.2.15, 216 h
[23] = molecular target: T1, Hepatic sodium/bile acid cotransporter; experiment: Binding affinity to NTCP (unknown origin)

## C=C(C)[C@@H]1CC[C@]2(/C=N/O)CC[C@]3(C)[C@H](CC[C@@H]4[C@@]5(C)CC[C@H](O)C(C)(C)[C@@H]5CC[C@]43C)[C@@H]12
[1]
  IC50: 11 µM

## Cc1ccc(C(=O)NCC(=O)N/N=C/c2ccccc2OCc2ccccc2Cl)cc1
Hepatitis B virus [2]
  IC50: 15 ng/mL (≈ 0.0344 µM)
Hepatitis B virus [3]
  IC50: 3.95 ng/mL (≈ 0.00906 µM)

## O=C1NC(=O)C(Cc2ccc(OCc3ccc(-c4ccccc4)cc3)cc2)S1 (stereo not given)
Hepatitis B virus [4]
  IC50: 5.2 µM

## CCCCC1=NC2(CCCC2)C(=O)N1Cc1ccc(-c2ccccc2-c2nnn[nH]2)cc1 [IRBESARTAN]
Hepatitis delta virus [5]
  EC50: 9.4 µM

## C=C(CO)[C@@H]1CC[C@]2(COC(C)=O)CC[C@]3(C)[C@H](CC[C@@H]4[C@@]5(C)CC[C@H](OC(C)=O)C(C)(C)[C@@H]5CC[C@]43C)[C@@H]12
[1]
  IC50: 8 µM

## CC(C)c1nc(CN(C)C(=O)N[C@H](C(=O)N[C@@H](Cc2ccccc2)C[C@H](O)[C@H](Cc2ccccc2)NC(=O)OCc2cncs2)C(C)C)cs1 [RITONAVIR]
Hepatitis delta virus [5]
  EC50: 9.1 µM

## O=c1c(O)c(-c2ccc(O)c(O)c2)oc2cc(O)cc(O)c12 [QUERCETIN]
Hepatitis B virus [6]
  Activity: 60%
Hepatitis B virus [7]
  Activity: 62%

## Cc1cc(OCCCS(C)(=O)=O)cc(C)c1-c1cccc(COc2ccc3c(c2)OC[C@H]3CC(=O)O)c1
Hepatitis B virus [8]
  IC50: 30 µM

## C=C(C)[C@@H]1CC[C@]2(CO)CC[C@]3(C)[C@H](CC[C@@H]4[C@@]5(C)CC[C@H](OC(=O)/C=C/c6ccc(O)c(O)c6)C(C)(C)[C@@H]5CC[C@]43C)[C@@H]12
[1]
  IC50: 6 µM

## O=C1NC(=O)/C(=C/c2ccc(-c3ccc(-c4cccc5ccccc45)cc3)cc2)S1
Hepatitis B virus [4]
  IC50: 1.7 µM

## O=C(O[C@@H]1Cc2c(O)cc(O)cc2O[C@@H]1c1cc(O)c(O)c(O)c1)c1cc(O)c(O)c(O)c1 [EPIGALOCATECHIN GALLATE]
Hepatitis B virus [9]
  IC50: 10 µM

## CC(C)[C@@H](C)/C=C/[C@@H](C)[C@H]1CC[C@@H]2[C@]1(C)CC[C@H]1[C@]23C=C[C@]2(C[C@@H](O)CC[C@]12C)OO3 [ERGOSTEROL PEROXIDE]
Hepatitis B virus [10]
  inhibition at 20 µM: 75%
Hepatitis B virus [11]
  EC50: 9.64 µM

## CCCCCCc1cc2ccc(OCC(=O)NC(CCSC)C(=O)O)cc2oc1=O (stereo not given)
[12]
  IC50: 17.8 µM
[13]
  IC50: 238 µM

## COc1ccc([C@H](O)[C@H](c2ccccn2)[C@@H](Nc2ccccn2)c2ccccc2)cc1
Hepatitis delta virus [14]
  IC50: 70 µM
[1]
  IC50: 16.5 µM

## Cc1c(Cc2ccccc2)c(=O)oc2cc(OCC(=O)NC(CSCc3ccccc3)C(=O)O)ccc12 (stereo not given)
[12]
  IC50: 13.3 µM
[13]
  IC50: 150 µM

## C[C@H]1O[C@H](Oc2c(-c3cc(O)c(O)c(O)c3)oc3cc(O)cc(O)c3c2=O)[C@@H](O)[C@@H](O)[C@@H]1O
Hepatitis B virus [6]
  Activity: 44%
Hepatitis B virus [7]
  Activity: 35%

## C=C(C)[C@@H]1CC[C@]2(COC(C)=O)CC[C@]3(C)[C@H](CC[C@@H]4[C@@]5(C)CC[C@H](OC(C)=O)C(C)(C)[C@@H]5CC[C@]43C)[C@@H]12 [BETULIN DIACETATE]
[1]
  IC50: 199 µM

## COc1cc(C(=O)NS(=O)(=O)c2ccccc2C)ccc1Cc1cn(C)c2ccc(NC(=O)OC3CCCC3)cc12 [ZAFIRLUKAST]
[15]
  IC50: > 1 µM

## O=C1N=C(O)S/C1=C\c1ccc(OCc2ccc(-c3ccccc3)cc2)cc1
Hepatitis B virus [4]
  IC50: 3.8 µM

## CCCCCCc1c(C)c2ccc(OCC(=O)NC(Cc3ccccc3)C(=O)O)cc2oc1=O (stereo not given)
[12]
  IC50: 12.5 µM
[13]
  IC50: 145 µM

## Cc1c(C)c2c(c(C)c1O)CCC(C)(COc1ccc(CC3SC(=O)NC3=O)cc1)O2 (stereo not given) [TROGLITAZONE]
Hepatitis B virus [16]
  IC50: 10 µM

## CC(C)(C)OC(=O)N1CCN(CC(=O)NCc2cccc(CNS(=O)(=O)c3ccc(C(F)(F)F)cc3)c2)CC1
HepG2
  IC50: 7.36 µM
Hepatitis B virus [2]
  IC50: 7.64 ng/mL (≈ 0.0134 µM)
Hepatitis B virus [3]
  IC50: 3.24 ng/mL (≈ 0.00568 µM)

## CN(CCOc1ccc(CC2SC(=O)NC2=O)cc1)c1ccccn1 (stereo not given) [ROSIGLITAZONE]
Hepatitis B virus [6]; Hepatitis B virus, HepG2 2.2.15, 48 h
  IC50: 5.1 µM

## COc1cc(/C=C/C(=O)CC(=O)/C=C/c2ccc(O)c(OC)c2)ccc1O [CURCUMIN]
Hepatitis B virus [17]
  Activity: 67%
[18]
  Kd: 64.3 µM
Hepatitis B virus [19]
  Activity: 55%

## O=Cc1cccc([C@@H]([C@H](Nc2ccccn2)c2ccccc2)[C@@H](O)c2ccccc2)n1
Hepatitis delta virus [14]
  IC50: 15 µM
[1]
  IC50: 16 µM

## COc1cc(-c2ccc(/N=N/c3ccc4c(S(=O)(=O)O)cc(S(=O)(=O)O)c(N)c4c3O)c(OC)c2)ccc1/N=N/c1ccc2c(S(=O)(=O)O)cc(S(=O)(=O)O)c(N)c2c1O [CHICAGO SKY BLUE]
[20]
  IC50: 7.1 µM
[15]
  IC50: > 1 µM

## Cc1c(OCC(=O)NC(CSCc2ccccc2)C(=O)O)ccc2c3c(c(=O)oc12)CCCC3 (stereo not given)
[12]
  IC50: 16.2 µM
[13]
  IC50: 123 µM

## CC1(COc2ccc(CC3SC(=O)NC3=O)cc2)CCCCC1 (stereo not given) [CIGLITAZONE]
Hepatitis B virus [16]
  IC50: 5 µM

## O=C(O)c1cc(/N=N/c2ccc(S(=O)(=O)Nc3ccccn3)cc2)ccc1O [SULFASALAZINE]
[15]
  IC50: > 1 µM

## O[C@H](c1ccc([C@@H](O)[C@@H](c2ccccn2)[C@H](Nc2ccccn2)c2ccccc2)cc1)[C@@H](c1ccccn1)[C@H](Nc1ccccn1)c1ccccc1
Hepatitis delta virus [14]
  IC50: 70 µM
[1]
  IC50: 6.5 µM

## CN1CCCC(n2nc(Cc3ccc(Cl)cc3)c3ccccc3c2=O)CC1 (stereo not given) [AZELASTINE]
Hepatitis B virus [21]
  IC50: 7.5 µM
Hepatitis B virus [22]
  IC50: 3.7 µM

## O=C1[C@H](CC[C@H](O)c2ccc(F)cc2)[C@@H](c2ccc(O)cc2)N1c1ccc(F)cc1 [EZETIMIBE]
Hepatitis delta virus [5]
  EC50: 10.4 µM
[23]
  Ki: 25 µM
